Source: patent US8889667B2 (Agios Pharmaceuticals, Inc, priority 2010, dated 2014)

molecular target: PKM2 (Homo sapiens, UniProt P14618); assay: PKM2 Assay (activation, LDH-coupled, absorbance at 340 nm); assay type: biochemical; conditions: Table 4
Protocol: • PKM2 stock enzyme solution was diluted in Reaction Buffer • 2 μL of compound was added into each well first, and then 180 μL of the Reaction Mix was added. • Reaction mixture with compound (without ADP) was incubated for 30 minutes at 4° C. • Plates were re-equilibrated to room temperature prior to adding 20 μL ADP to initiate the reaction. • Reaction progress was measured as changes in absorbance at 340 nm wavelength at room temperature (25° C.) Reaction Mix: PKM2 (50 ng/well), ADP (0.7 mM), PEP (0.15 mM), NADH (180 μM), LDH (2 units) in Reaction Buffer Reaction Buffer: 100 mM KCl, 50 mM Tris pH 7.5, 5 mM MgCl2, 1 mM DTT, 0.03% BSA.
Representative compounds of the invention were tested for their ability to activate PKM2 using the above assay. For simplicity, the activation activity of these compounds is represented as an AC50 in Tables 4 and 5 and throughout the application. […] “B” refers to an activator of PKM2 with an EC50 between 100 nM and 500 nM. “C” refers to an activator of PKM2 with an EC50 between 500 nM and 1000 nM. “D” refers to an activator of PKM2 with an EC50 between 1 μM and 20 μM. “E” refers a compound whose activation of PKM2 was not measurable. “N/C” refers to AC50 data not available.

Sequence of PKM2 (P14618 whole entry): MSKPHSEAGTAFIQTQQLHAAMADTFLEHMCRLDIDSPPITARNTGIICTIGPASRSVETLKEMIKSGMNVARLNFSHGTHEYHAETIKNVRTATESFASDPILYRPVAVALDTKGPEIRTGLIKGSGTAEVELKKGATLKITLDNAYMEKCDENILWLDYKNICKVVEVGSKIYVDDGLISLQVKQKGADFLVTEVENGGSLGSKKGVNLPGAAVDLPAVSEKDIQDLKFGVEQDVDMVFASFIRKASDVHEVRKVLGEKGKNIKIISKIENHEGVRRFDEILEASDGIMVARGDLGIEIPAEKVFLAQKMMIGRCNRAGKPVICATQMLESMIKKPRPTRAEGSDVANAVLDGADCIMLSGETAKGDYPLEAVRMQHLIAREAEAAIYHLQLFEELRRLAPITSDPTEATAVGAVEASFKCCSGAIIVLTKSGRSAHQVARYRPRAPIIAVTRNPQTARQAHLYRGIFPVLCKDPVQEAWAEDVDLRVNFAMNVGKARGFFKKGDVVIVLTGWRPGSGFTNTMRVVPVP

| Structure (SMILES) | AC50 |
| --- | --- |
| C[C@H]1CN(Cc2cc(F)c(F)c(F)c2)CCN1C(=O)c1ccc(NS(=O)(=O)c2cccc3cccnc23)cc1 [Compound 155, (S)—N-(4-(2-methyl-4-(3,4,5-trifluorobenzyl)piperazine-1-carbonyl)phenyl)quinoline-8-sulfonamide] | < 0.1 µM |
| C[C@H]1CN(CC2CCCCO2)CCN1C(=O)c1ccc(NS(=O)(=O)c2cccc3cccnc23)cc1 (stereo partly drawn) [Compound 156, N-(4-((2S)-2-methyl-4-((tetrahydro-2H-pyran-2-yl)methyl)piperazine-1-carbonyl)phenyl)quinoline-8-sulfonamide] | 0.5 to 1 µM |
| CC[C@H]1CN(C(C)c2cc(F)cc(F)c2)CCN1C(=O)c1ccc(NS(=O)(=O)c2cccc3cccnc23)cc1 (stereo partly drawn) [Compound 161, N-(4-((2S)-4-(1-(3,5-difluorophenyl)ethyl)-2-ethylpiperazine-1-carbonyl)phenyl)quinoline-8-sulfonamide] | < 0.1 µM |
| CC[C@H]1CN(C(C)c2cc(F)c(F)c(F)c2)CCN1C(=O)c1ccc(NS(=O)(=O)c2cccc3cccnc23)cc1 (stereo partly drawn) [Compound 162, N-(4-((2S)-2-ethyl-4-(1-(3,4,5-trifluorophenyl)ethyl)piperazine-1-carbonyl)phenyl)quinoline-8-sulfonamide] | 0.1 to 0.5 µM |
| C[C@@H]1CN(CC2CCCCO2)CCN1C(=O)c1ccc(NS(=O)(=O)c2cccc3cccnc23)cc1 (stereo partly drawn) [Compound 163, N-(4-((2R)-2-methyl-4-((tetrahydro-2H-pyran-2-yl)methyl)piperazine-1-carbonyl)phenyl)quinoline-8-sulfonamide] | < 0.1 µM |
| C[C@H]1CN(Cc2c(F)cc(F)cc2F)CCN1C(=O)c1ccc(NS(=O)(=O)c2cccc3cccnc23)cc1 [Compound 164, (S)—N-(4-(2-methyl-4-(2,4,6-trifluorobenzyl)piperazine-1-carbonyl)phenyl)quinoline-8-sulfonamide] | 0.1 to 0.5 µM |
| O=C(c1ccc(NS(=O)(=O)c2cccc3cccnc23)cc1)N1CCN(Cc2ccc(F)cc2)C[C@@H]1c1ccccc1 [Compound 165] | < 0.1 µM |
| C[C@H]1CN(C(=O)O[C@@H]2CCOC2)CCN1C(=O)c1ccc(NS(=O)(=O)c2cccc3cccnc23)cc1 [Compound 166] | 0.1 to 0.5 µM |
| CC(C)[C@H]1CN(Cc2ccc(F)cc2)CCN1C(=O)c1ccc(NS(=O)(=O)c2cccc3cccnc23)cc1 [Compound 175] | 1 to 20 µM |
| CC(C)[C@H]1CN(Cc2cc(F)cc(F)c2)CCN1C(=O)c1ccc(NS(=O)(=O)c2cccc3cccnc23)cc1 [Compound 176] | 1 to 20 µM |
| CC(C)[C@H]1CN(C(C)c2ccc(F)cc2)CCN1C(=O)c1ccc(NS(=O)(=O)c2cccc3cccnc23)cc1 (stereo partly drawn) [Compound 177] | 1 to 20 µM |
| C[C@H]1CN(CC2CC2)CCN1C(=O)c1ccc(NS(=O)(=O)c2cccc3cccnc23)cc1Cl [Compound 178] | 0.1 to 0.5 µM |
| C[C@H]1CN(Cc2cc(F)cc(F)c2)CCN1C(=O)c1ccc(NS(=O)(=O)c2cccc3cccnc23)cc1Cl [Compound 179] | 0.1 to 0.5 µM |
| O=C(c1ccc(NS(=O)(=O)c2cccc3cccnc23)cc1)N1CCN(CC2CC2)C[C@@H]1c1ccccc1 [Compound 180] | 0.1 to 0.5 µM |
| O=C(c1ccc(NS(=O)(=O)c2cccc3cccnc23)cc1)N1CCN(Cc2cc(F)cc(F)c2)C[C@@H]1c1ccccc1 [Compound 181] | 0.1 to 0.5 µM |
| C[C@H]1CN(Cc2ccc(F)cc2)CCN1C(=O)c1ccc(NS(=O)(=O)c2cccc3cccnc23)cc1Cl [Compound 184, (S)—N-(3-chloro-4-(4-(4-fluorobenzyl)-2-methylpiperazine-1-carbonyl)phenyl)quinoline-8-sulfonamide] | 0.1 to 0.5 µM |
| C[C@H]1CN(Cc2ccc(Cl)c(F)c2)CCN1C(=O)c1ccc(NS(=O)(=O)c2cccc3cccnc23)cc1Cl [Compound 185, (S)—N-(3-chloro-4-(4-(4-chloro-3-fluorobenzyl)-2-methylpiperazine-1-carbonyl)phenyl)quinoline-8-sulfonamide] | 0.5 to 1 µM |
| C[C@H]1CN(CC2CCCC2)CCN1C(=O)c1ccc(NS(=O)(=O)c2cccc3cccnc23)cc1Cl [Compound 186, (S)—N-(3-chloro-4-(4-(cyclopentylmethyl)-2-methylpiperazine-1-carbonyl)phenyl)quinoline-8-sulfonamide] | < 0.1 µM |
| C[C@H]1CN(CC2CCOC2)CCN1C(=O)c1ccc(NS(=O)(=O)c2cccc3cccnc23)cc1Cl (stereo partly drawn) [Compound 187, N-(3-chloro-4-((2S)-2-methyl-4-((tetrahydrofuran-3-yl)methyl)piperazine-1-carbonyl)phenyl)quinoline-8-sulfonamide] | 0.1 to 0.5 µM |
| C[C@H]1CN(Cc2c(F)cc(F)cc2F)CCN1C(=O)c1ccc(NS(=O)(=O)c2cccc3cccnc23)cc1Cl [Compound 188, (S)—N-(3-chloro-4-(2-methyl-4-(2,4,6-trifluorobenzyl)piperazine-1-carbonyl)phenyl)quinoline-8-sulfonamide] | 0.5 to 1 µM |

The remaining lines, values ahead:

| AC50 | Structure (SMILES) |
| --- | --- |
| 0.1 to 0.5 µM | C[C@H]1CN(Cc2ccc(F)c(F)c2F)CCN1C(=O)c1ccc(NS(=O)(=O)c2cccc3cccnc23)cc1 [Compound 154, (S)—N-(4-(2-methyl-4-(2,3,4-trifluorobenzyl)piperazine-1-carbonyl)phenyl)quinoline-8-sulfonamide] |
| 0.1 to 0.5 µM | CC(c1ccc(Cl)c(F)c1)N1CCN(C(=O)c2ccc(NS(=O)(=O)c3cccc4cccnc34)cc2)[C@H](C)C1 (stereo partly drawn) [Compound 157, N-(4-((2R)-4-(1-(4-chloro-3-fluorophenyl)ethyl)-2-methylpiperazine-1-carbonyl)phenyl)quinoline-8-sulfonamide] |
| 0.1 to 0.5 µM | CC(c1cc(F)c(F)c(F)c1)N1CCN(C(=O)c2ccc(NS(=O)(=O)c3cccc4cccnc34)cc2)[C@H](C)C1 (stereo partly drawn) [Compound 158, N-(4-((2R)-2-methyl-4-(1-(3,4,5-trifluorophenyl)ethyl)piperazine-1-carbonyl)phenyl)quinoline-8-sulfonamide] |
| 0.1 to 0.5 µM | CC(c1c(F)cccc1F)N1CCN(C(=O)c2ccc(NS(=O)(=O)c3cccc4cccnc34)cc2)[C@H](C)C1 (stereo partly drawn) [Compound 159, N-(4-((2R)-4-(1-(2,6-difluorophenyl)ethyl)-2-methylpiperazine-1-carbonyl)phenyl)quinoline-8-sulfonamide] |
| < 0.1 µM | CC(c1ccc(F)cc1F)N1CCN(C(=O)c2ccc(NS(=O)(=O)c3cccc4cccnc34)cc2)[C@H](C)C1 (stereo partly drawn) [Compound 160, N-(4-((2R)-4-(1-(2,4-difluorophenyl)ethyl)-2-methylpiperazine-1-carbonyl)phenyl)quinoline-8-sulfonamide] |
| < 0.1 µM | CC(c1c(F)cc(F)cc1F)N1CCN(C(=O)c2ccc(NS(=O)(=O)c3cccc4cccnc34)cc2)[C@H](C)C1 (stereo partly drawn) [Compound 167] |
| 0.1 to 0.5 µM | CC(c1cc(F)c(F)cc1F)N1CCN(C(=O)c2ccc(NS(=O)(=O)c3cccc4cccnc34)cc2)[C@H](C)C1 (stereo partly drawn) [Compound 168] |
| 0.1 to 0.5 µM | CC(c1ccc(F)cc1F)N1CCN(C(=O)c2ccc(NS(=O)(=O)c3cccc4cccnc34)cc2)[C@@H](C)C1 (stereo partly drawn) [Compound 169] |
| 0.1 to 0.5 µM | CC(c1cc(F)cc(F)c1)N1CCN(C(=O)c2ccc(NS(=O)(=O)c3cccc4cccnc34)cc2)[C@@H](C)C1 (stereo partly drawn) [Compound 170] |
| 0.1 to 0.5 µM | CC(c1ccc(F)cc1)N1CCN(C(=O)c2ccc(NS(=O)(=O)c3cccc4cccnc34)cc2)[C@@H](C)C1 (stereo partly drawn) [Compound 171] |
| 0.1 to 0.5 µM | CC(c1c(F)cc(F)cc1F)N1CCN(C(=O)c2ccc(NS(=O)(=O)c3cccc4cccnc34)cc2)[C@@H](C)C1 (stereo partly drawn) [Compound 172] |
| 0.1 to 0.5 µM | CC(c1ccc(F)c(F)c1F)N1CCN(C(=O)c2ccc(NS(=O)(=O)c3cccc4cccnc34)cc2)[C@@H](C)C1 (stereo partly drawn) [Compound 173] |
| 0.1 to 0.5 µM | CC(c1cc(F)c(F)cc1F)N1CCN(C(=O)c2ccc(NS(=O)(=O)c3cccc4cccnc34)cc2)[C@@H](C)C1 (stereo partly drawn) [Compound 174] |
| 0.1 to 0.5 µM | CC(c1ccc(Cl)c(F)c1)N1CCN(C(=O)c2ccc(NS(=O)(=O)c3cccc4cccnc34)cc2)[C@@H](C)C1 (stereo partly drawn) [Compound 182] |
| < 0.1 µM | CC(c1ccccc1F)N1CCN(C(=O)c2ccc(NS(=O)(=O)c3cccc4cccnc34)cc2)[C@H](C)C1 (stereo partly drawn) [Compound 183] |
| < 0.1 µM | CC(c1ccc(F)c(F)c1F)N1CCN(C(=O)c2ccc(NS(=O)(=O)c3cccc4cccnc34)cc2)[C@H](C)C1 (stereo partly drawn) [Compound 189, N-(4-((2R)-2-methyl-4-(1-(2,3,4-trifluorophenyl)ethyl)piperazine-1-carbonyl)phenyl)quinoline-8-sulfonamide] |
| < 0.1 µM | CC(c1c(F)ccc(F)c1F)N1CCN(C(=O)c2ccc(NS(=O)(=O)c3cccc4cccnc34)cc2)[C@H](C)C1 (stereo partly drawn) [Compound 190, N-(4-((2R)-2-methyl-4-(1-(2,3,6-trifluorophenyl)ethyl)piperazine-1-carbonyl)phenyl)quinoline-8-sulfonamide] |
| 0.1 to 0.5 µM | CC(c1ccc(F)cc1Cl)N1CCN(C(=O)c2ccc(NS(=O)(=O)c3cccc4cccnc34)cc2)[C@H](C)C1 (stereo partly drawn) [Compound 191, N-(4-((2R)-4-(1-(2-chloro-4-fluorophenyl)ethyl)-2-methylpiperazine-1-carbonyl)phenyl)quinoline-8-sulfonamide] |
| 0.1 to 0.5 µM | CC(c1c(F)ccc(F)c1F)N1CCN(C(=O)c2ccc(NS(=O)(=O)c3cccc4cccnc34)cc2)[C@@H](C)C1 (stereo partly drawn) [Compound 192, N-(4-((2S)-2-methyl-4-(1-(2,3,6-trifluorophenyl)ethyl)piperazine-1-carbonyl)phenyl)quinoline-8-sulfonamide] |
